PubChem BioAssay (NCI)
Several values for one entry are separate records, joined by “and”; a condition that tells them apart may be missing. Identical values can stand only once.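 Following 48 hours of exposure in 96-well plates, responses at five concentrations were used to interpolate endpoints linearly. GI50 marks 50% less growth. At the TGI there is no net growth.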

Tests used:
Assay in all cases: inhibition of tumour cell growth, NCI panel, 48 h
SK-OV-3 ovarian = tested on: SK-OV-3 ovarian
EKVX NSCLC = tested on: EKVX NSCLC
MDA-MB-231 breast = tested on: MDA-MB-231 breast
SK-MEL-28 melanoma = tested on: SK-MEL-28 melanoma
SF-295 CNS = tested on: SF-295 CNS
A549 NSCLC = tested on: A549 NSCLC
HOP-92 NSCLC = tested on: HOP-92 NSCLC
MCF7 breast = tested on: MCF7 breast
HS 578T breast = tested on: HS 578T breast
SF-268 CNS = tested on: SF-268 CNS

SMILES	GI50 (SK-OV-3 ovarian)	TGI (SK-OV-3 ovarian)	GI50 (EKVX NSCLC)	TGI (EKVX NSCLC)	GI50 (MDA-MB-231 breast)	TGI (MDA-MB-231 breast)	GI50 (SK-MEL-28 melanoma)	TGI (SK-MEL-28 melanoma)	GI50 (SF-295 CNS)	TGI (SF-295 CNS)	GI50 (A549 NSCLC)	TGI (A549 NSCLC)	GI50 (HOP-92 NSCLC)	TGI (HOP-92 NSCLC)	GI50 (MCF7 breast)	TGI (MCF7 breast)	GI50 (HS 578T breast)	TGI (HS 578T breast)	GI50 (SF-268 CNS)	TGI (SF-268 CNS)
COc1ccc(C2C3=C(NC(=O)C2C#N)c2ccc4ccccc4c2OCC3)cc1 (configuration not stated)	20 µM	47.1 µM	15.8 µM	50.1 µM	17.9 µM	43.2 µM	42.3 µM	> 100 µM	27.4 µM	> 100 µM	38.9 µM	> 100 µM	11400 nM	43.4 µM	> 100 µM	> 100 µM	22600 nM	56.6 µM	23.3 µM	76.2 µM
O=C1OCC(c2ccc(O)c(O)c2)=C1c1cc(O)c(O)c(O)c1			70.6 µM	> 100 µM	15.2 µM	31 µM	38.5 µM	> 100 µM	14.6 µM	30.9 µM	21.6 µM	76 µM	2760 nM	18.2 µM	36.9 µM	> 100 µM	87900 nM	> 100 µM	63.7 µM	> 100 µM
COc1ccc(-c2cc3cccc(OC)c3c(=O)o2)cc1OC	46.2 µM	> 100 µM	0.83 µM	39.5 µM	22.8 µM	> 100 µM	44.4 µM	> 100 µM	33.8 µM	> 100 µM	59.4 µM	> 100 µM	37200 nM	> 100 µM	32 µM	> 100 µM	12700 nM	> 100 µM	39.7 µM	> 100 µM
O=C(NO)c1ccc(C(=O)NO)cc1		87.2 µM		> 100 µM		> 100 µM		> 100 µM		> 100 µM		> 100 µM		> 100 µM		> 100 µM		> 100 µM		> 100 µM
O=S(=O)(Nc1ccc(-c2nc(-c3cccc(OCCN4CCOCC4)c3)c(-c3ccnc(Br)c3)[nH]2)cc1)c1ccccc1	3.81 µM	> 100 µM	3.4 µM	> 100 µM	3.23 µM	63.6 µM	2.77 µM	9.79 µM	1.72 µM	4.1 µM	3.35 µM	> 100 µM	2410 nM	8.18 µM	2.16 µM	8.51 µM	1470 nM	4.37 µM	4.23 µM	> 100 µM
CC1(C)CCC(S(=O)(=O)c2ccc3c(c2)/C(=N\O)c2cc(S(=O)(=O)N4CCC(O)(c5cccc(C(F)(F)F)c5)CC4)ccc2-3)CC1	0.0238 µM	0.0593 µM	0.0329 µM	0.408 µM	0.0217 µM	0.0438 µM	0.0505 µM	0.446 µM	0.0272 µM	0.11 µM	0.034 µM	1.05 µM	517 nM	3.48 µM	0.0206 µM	0.0485 µM	28.7 nM	0.0749 µM	0.0198 µM	0.0429 µM
Cc1nc2sc(C(=O)Nc3cccc4ccccc34)c(N)c2cc1C(C)O (configuration not stated)	0.196 µM	> 50 µM	0.446 µM	> 50 µM	0.751 µM	> 50 µM	0.882 µM	> 50 µM	0.171 µM	> 50 µM	0.345 µM	> 50 µM	1030 nM	> 47 µM	0.17 µM	> 50 µM	121 nM	> 50 µM	0.367 µM	> 50 µM
O=C(NNc1nc2cc(F)ccc2n2c(CN3CCOCC3)ccc12)c1ccccc1	0.405 µM	3.39 µM	0.142 µM	1.7 µM	0.443 µM	2.45 µM	0.29 µM	1.78 µM	0.181 µM	1.52 µM	0.303 µM	2.25 µM	791 nM	2.87 µM	0.219 µM	1.31 µM	1510 nM	8.05 µM	0.243 µM	2.69 µM
CCOc1ccc(NC(=O)Nc2cc(C(C)C)ccc2C)cc1	12.3 µM	35.4 µM	8.55 µM	> 96.7 µM	3.79 µM	15.8 µM	8.32 µM	41.8 µM	7.45 µM	25.4 µM	4.56 µM	17.6 µM	1830 nM	7.54 µM	11.8 µM	> 57.8 µM	2320 nM	7.06 µM	4.36 µM	14.7 µM
CN(C(=O)c1ccc(F)cc1C(F)(F)F)C1CCN(c2nnc(-c3ccnn3C)c3ccccc23)CC1	> 77.9 µM	> 100 µM	19.4 µM	> 100 µM	37.8 µM	> 100 µM	> 65.6 µM	> 100 µM	31.5 µM	> 100 µM	41 µM	> 100 µM	16500 nM	> 92.9 µM	24.2 µM	> 100 µM	50800 nM	> 100 µM	> 74.5 µM	> 100 µM
Cc1ccc(S(=O)(=O)N(C)C)cc1[N+](=O)[O-]	> 100 µM	> 100 µM	> 100 µM	> 100 µM	> 100 µM	> 100 µM	> 100 µM	> 100 µM	> 100 µM	> 100 µM	> 100 µM	> 100 µM	> 100000 nM	> 100 µM	> 100 µM	> 100 µM	> 100000 nM	> 100 µM	> 100 µM	> 100 µM
COc1ccc(OC)c(/C=C/[N+](=O)[O-])c1		26.2 µM and 10.3 µM	2.42 µM and 6.47 µM	6.18 µM and 16.7 µM		5.32 µM		4.96 µM and 9.45 µM	3.09 µM	9.46 µM and 11.4 µM	2.85 µM	15.4 µM and 13.6 µM	2040 nM	7.23 µM and 10.4 µM		8.64 µM		14.6 µM		10 µM and 12.3 µM
C[C@@H]1O[C@@H](O[C@H]2C[C@@H](O)[C@]3(CO)C4C(CC[C@]3(O)C2)[C@@]2(O)CC[C@H](C3=CC(=O)OC3)[C@@]2(C)C[C@H]4O)[C@H](O)[C@H](O)[C@H]1O (some centres not stated)	0.0203 µM	0.0731 µM	0.0151 µM	0.0518 µM	0.111 µM	0.286 µM	0.0881 µM	0.164 µM	0.0196 µM	0.098 µM	0.00907 µM	0.0172 µM	59.7 nM	0.25 µM	0.0244 µM	0.121 µM	18.2 nM	4.32 µM	0.0189 µM	0.0642 µM
